Series [1] relates to TNBS-induced enteritis; mucosal injury of the intestine induced by acetic acid. In words: Effect on TNBS-induced enteritis (followed by acetic acid). Format: in vivo, Fischer rats. The procedure: Ecabet sodium of the active ingredient of the present invention was administered to Fischer rats to which TNBS was previously intra-intestinally injected to induce chronic enteritis, and further acetic acid was administered to the rats. Prophylactic or therapeutic effect of Ecabet sodium on the mucosal injury of the intestine induced by acetic acid was studied.
Namely, a solution of TNBS (2,4,6-trinitrobenzenesulfonic acid) in 50% ethanol was injected intra-intestinally to Fischer rats at a dose of 50 mg per 1 kg of the body weight to give the TNBS-induced enteritis. Three weeks thereafter, Ecabet sodium-containing granules (0.5 g) was suspended in a physiological saline, and the mixture was administered intra-rectally to the rats. Thirty minutes thereafter, a 25% acetic acid solution was intra-rectally injected to the rats, and two hours after the acetic acid administration, the intestine was excised from the rats, and the intestinal mucosal injury thereof was scored and evaluated both macroscopically and histologically in the same manner as in Experiment 1 according to the Macpherson's method for Classification and Evaluation. In the control group, the same procedures were repeated except for that a physiological saline was administered instead of a suspension of Ecabet sodium-containing granules in a physiological saline.

In series [2] the test system is acute hemorrhagic rectal ulcer. As to the kind of experiment: Clinical effects in acute hemorrhagic rectal ulcer (Experiments 8-10). The format is in vivo, human patient. The procedure:
The patient was a person, who was hospitalized for treatment of HCV-associated hepatocirrhosis, hepatocellular carcinoma and esophageal varices. After the endoscopic ossification treatment for the esophageal varices was done, an acute hemorrhagic rectal ulcer appeared at whole of the lower rectum. The patient was treated with total parenteral nutrition for 52 days, but the conditions were not improved. Ecabet sodium was administered to the patient mentioned above. That is, Ecabet sodium-containing granules (1.5 g) were suspended in water, and the resultant was injected through the anus twice a day for about 1.5 month. […] The patient was a person, who was hospitalized for treatment of the right thighbone break. During the treatment thereof, an acute hemorrhagic rectal ulcer occurred at whole of the lower rectum. The patient was treated with total parenteral nutrition, but the conditions were not improved. Ecabet sodium was administered to the patient mentioned above. That is, Ecabet sodium-containing granules (1.5 g) were suspended in water, and the resultant was injected through the anus twice a day for about 2.5 months. […] The patient was a person, who was hospitalized for treatment of pancreatic cancer. During the treatment, an acute hemorrhagic rectal ulcer appeared at whole of the lower rectum. Ecabet sodium was administered to the patient mentioned above. That is, Ecabet sodium-containing granules (1.5 g) were suspended in water, and the resultant was injected through the anus twice a day for about 1 month.

Series [3] relates to intestinal Behçet's disease. In words: Clinical effects in a patient of Behçet's disease. The format is in vivo, human patient. Conditions: person. From the text: The patient was a person, whose illness had been diagnosed as intestinal Behçet's disease accompanying with the multiple ulcerative lesion at the small intestine, and who had been medically treated (i.e., administration of a steroid, etc.). Then, the patient was operated surgically twice to excise the intestine on account of massive melena and regional peritonitis but the lesion of the remaining intestine was exacerbated, and further ileus, melena, and peritonitis symptoms caused by anastomotic recrudescence appeared. In order to excise the injured intestine, the abdomen of the patient was incised, but the injured area was so large that the intestine could not be excised, so that a loop ileal artificial anus was installed for administration of Ecabet sodium.
Ecabet sodium was administered to the patient mentioned above. That is, Ecabet sodium-containing granules (1.5 g) were orally administered twice a day. Further, said granules (1.5 g) were pulverized in a mortar, suspended in water, and the resultant was directly administered into the intestine through the artificial anus twice a day. After the administration of Ecabet sodium, the pain and the melena disappeared in a several days.

Series [4] concerns ileum pouchitis accompanying with acute hemorrhagic ulcer. As to the kind of experiment: Clinical effects in ileum pouchitis. The format is in vivo, human patient. As to conditions: Experiment 11, person; granules 1.5 g in water through the anus twice a day for about 4 months. The procedure:
The patient was a person. During the postoperative treatment, ileum pouchitis accompanying with acute hemorrhagic ulcer appeared at the ileum pouch which was subjected to ileal pouch/anal anastomosis by the operation for ulcerative colitis. Ecabet sodium was administered to the patient mentioned above. That is, Ecabet sodium-containing granules (1.5 g) were suspended in water, and the resultant was injected through the anus twice a day for about 4 months.

For series [5], the system named is intestinal mucosal injury induced by intra-intestinal infusion of acetic acid. In words: Prophylactic or therapeutic effect on acetic acid-induced intestinal injury. The format is in vivo. Conditions: Fischer rats. The text has this:
Sulfodehydroabietic acid monosodium salt […] (hereinafter referred to as Ecabet sodium) of the active ingredient of the present invention was previously administered to Fischer rats, and the prophylactic or therapeutic effect thereof on intestinal mucosal injury induced by intra-intestinal infusion of acetic acid was studied. Namely, granules containing Ecabet sodium (0.5 g, trade name: Gastrome granule, containing 1.0 g of Ecabet sodium per 1.5 g, hereinafter simply referred to as Ecabet sodium-containing granules) were suspended in a physiological saline, and the mixture was injected intra-rectally to Fischer rats. One hour thereafter, a 25% acetic acid solution was intra-rectally injected to the rats. Two hours after the administration of acetic acid, the intestine was excised from the rats, and the histopathological changes in the surface of the intestinal inner wall was observed visually and with a microscope, and the injury of the intestinal mucosa was evaluated both macroscopically and histologically. In the control group, the same procedures were repeated except for that a physiological saline was administered instead of a suspension of Ecabet sodium-containing granules in a physiological saline. […] In addition, the degree of the intestine mucosal injury between the physiological saline-treated group and the Ecabet sodium-treated group was scored and compared according to the criteria as mentioned below, which was based on the method for Classification and Evaluation of Macpherson, B. R. et al., Digestion, 17, p. 135–150 (1978). The data is indicated in Table 1. • (1) Scoring criteria of degree of macroscopic injury: [table] • (2) Scoring criteria of degree of histological injury: [table]

For series [6], the system named is left-sided colon ulcerative colitis. As to the kind of experiment: Clinical effects in ulcerative colitis (Experiments 5-7). Format: in vivo, human patient. The procedure: The patient was a person, whose illness was diagnosed as left-sided colon ulcerative colitis. The patient was medicated with mesalazine and a steroid, and treated with leukocytapheresis, but the rectal lesion was remained, and the symptoms were not improved any further. The inflammation was scored as Matts Grade 3 (Quarterly Journal of Medicine, New Series, No. 120, October 1961), and it was so frail that it bled when the endoscopic examination was carried out.
Ecabet sodium was administered to the patient mentioned above. That is, Ecabet sodium-containing granules (1.5 g) were pulverized in a mortar, suspended in a physiological saline (20 ml), and the resultant was rectally administered through the anus twice a day. After the administration, the inflammation was remitted to Matts Grade 2, and the inflammation area was decreased.
The patient was a person, whose illness was diagnosed as left-sided colon ulcerative colitis. The patient was medicated with mesalazine, predonine and a steroid, by which the inflammation was controlled to a degree of disseminated ulcer at the rectum, but further improvement was not obtained.
Ecabet sodium was administered to the patient mentioned above. That is, Ecabet sodium-containing granules (1.5 g) were pulverized in a mortar, suspended in a physiological saline (20 ml), and the resultant was rectally administered through the anus twice a day. After the administration, the ulcer was improved into a red scar.
The patient was a person, whose illness was diagnosed as left-sided colon ulcerative colitis. The patient was medicated with salazosulfapyridine and predonine, and treated with leukocytapheresis, but the inflammation condition at the rectum could not be controlled, and the bleeding and the melena lasted.
Ecabet sodium was administered to the patient mentioned above. That is, Ecabet sodium-containing granules (1.5 g) were pulverized in a mortar, suspended in a physiological saline (20 ml), and the resultant was rectally administered through the anus twice a day.

Series [7] deals with large and small intestine Crohn's disease. As to the kind of experiment: Clinical effects in a patient of Crohn's disease. The format is in vivo, human patient. As to conditions: person; one year after the start of the administration. The procedure: The patient was a person, whose illness was diagnosed from the pathological data as large and small intestine Crohn's disease. The exacerbation and the remission were mutually repeated, and the patient was treated with a conventional medicine, but the exacerbation of the anal lesion and the bleeding at the intestine could not be controlled. Although a surgical excision of the lesion was considered, the area of the lesion was so large that it could not be excised, and therefore, a loop ileal artificial anus was installed for administration of Ecabet sodium. Ecabet sodium was administered to the patient mentioned above. That is, Ecabet sodium-containing granules (1.5 g) were pulverized in a mortar, suspended in water, and the resultant was directly administered into the intestine through the artificial anus once a day.

The conditions of series [8]: compared with the disodium salt; cited from earlier work.
The mark [9] stands for this setting: Fischer rats 3 weeks after TNBS 50 mg/kg, granules 0.5 g intra-rectally 30 min before 25% acetic acid, 2 h after acetic acid, P < 0.05 vs saline.
Setting [10] is: Ecabet sodium-containing granules 0.5 g in saline intra-rectally 1 h before 25% acetic acid, intestine excised 2 h after acetic acid, mean ± s.e. of sum of scores (0-3) of 4 items.

The values that follow come from patent US7153886B2, “Method for treatment of peripheral inflammation of a loop ileal artificial anus” (Tanabe Seiyaku Co., Ltd., priority 1999, dated 2006).

“Also recorded” adds a separate entry of the source. Counter-ions that a name gives are not always drawn.

For `CC(C)c1cc2c(cc1S(=O)(=O)O)[C@@]1(C)CCC[C@@](C)(C(=O)O)[C@@H]1CC2` [Ecabet sodium, (+)-(1R,4aS,10aR)-1,2,3,4,4a,9,10,10a-octahydro-1,4a-dimethyl-7-(1-methylethyl)-6-sulfo-1-phenanthrenecarboxylic acid 6-sodium salt pentahydrate], the “Degree of Histological Injury” value in series [1] (setting [9]) was determined as 4.6 ± 0.4; in series [5] (setting [10]), 2.3 ± 0.4. Moreover, the figures for the “Degree of Macroscopic Injury” value in series [1] (setting [9]) and in series [5] (setting [10]) were 3.9 ± 0.3 and 1.3 ± 0.2, respectively. Further, the “intestinal mucosal injury (observation)” value in series [1] (TNBS-enteritis Fischer rats, versus physiological saline-treated rats) is listed as “effectively inhibited”. In addition, the “acute hemorrhagic rectal ulcer outcome” value in series [2] (Experiment 8, person, granules 1.5 g in water through the anus twice a day for about 1.5 month) is “cured without any cicatricial stenosis”; in series [2] (Experiment 9, person, granules 1.5 g in water through the anus twice a day for about 2.5 months) it was “cured without any cicatricial stenosis”; in series [2] (Experiment 10, person, granules 1.5 g in water through the anus twice a day for about 1 month) it was “cured without any cicatricial stenosis”. The “ulcerative lesion in the endoscopic finding” value in series [3] (2 weeks after the start of the administration) is reported as “remarkably improved”. In addition, the recrudescence result in series [3] (7 months after the start of the administration) was “has not been observed”. Moreover, the pain and melena entry in series [3] (granules 1.5 g orally twice a day plus 1.5 g through artificial anus twice a day, in a several days) is recorded as “disappeared”. Besides, the “ileum pouchitis and ulcer outcome” value in series [4] is “cured without any cicatricial stenosis”. Further, the “intestinal mucosal injury induced by acetic acid (observation)” value in series [5] (versus physiological saline-treated rats (injury broadly observed)) is “hardly observed”. The “Inflammation, Matts Grade, after the administration” value in series [6] (Experiment 5, person, granules 1.5 g in saline 20 ml rectally twice a day, Matts Grade 3 before) is given as “Grade 2”. In addition, the “Area of inflammation after the administration” value in series [6] (Experiment 5, person, granules 1.5 g rectally twice a day) was “decreased; also recorded: reduced”. Besides, the “inflammation of the intestine tissue at the lesion (endoscope)” value in series [6] (Experiment 5, 11 days after the start of the administration) was “remarkably improved”. In series [6] (Experiment 6, person, granules 1.5 g in saline 20 ml rectally twice a day, 18 days, intractable ulcer before), the “ulcer at the rectum after the administration (endoscope)” value was “turned into a red scar; also recorded: Improvement into a red”. For the same compound, the “inflammation condition after the administration” value in series [6] (Experiment 7, person, granules 1.5 g in saline 20 ml rectally twice a day, mild to moderate inflammation before) was “only a slight erythema was remained; also recorded: Improvement into a slight”. For the same compound, the “inflammation of the lesion (endoscope)” value in series [6] (Experiment 7, 12 days after the start of the administration) is “almost disappeared”. For the same compound, the “injury of the intestinal mucosa (endoscope)” value in series [7] is recorded as “disappeared”.
Regarding `CC(C)c1cc2c(cc1S(=O)(=O)[O-])[C@@]1(C)CCC[C@@](C)(C(=O)O)[C@@H]1CC2.[Na+]` [Sulfodehydroabietic acid monosodium salt], in series [8], the hygroscopicity result was “less hygroscopic” and the stability result was “more stable”.
